Results on eleven compounds are retold here after patent US12441727B2, “Tricyclic compounds as inhibitors of KRAS” (Incyte Corporation, priority 2021, dated 2025).

The target of one data set is KRAS G12C (Homo sapiens, UniProt P01116, G12C). As to the kind of experiment: GDP-GTP exchange assay (KRAS_G12C exchange assay). The format is biochemical. Conditions: bodipy-loaded KRAS G12C 2.5 nM, SOS1 150 nM, 2 hours pre-incubation with inhibitor; read-out: G12C_exchange. As to the method:
The inhibitor potency of the exemplified compounds was determined in a fluorescence based guanine nucleotide exchange assay, which measures the exchange of bodipy-GDP (fluorescently labeled GDP) for GppNHp (Non-hydrolyzable GTP analog) to generate the active state of KRAS in the presence of SOS1 (guanine nucleotide exchange factor). Inhibitors were serially diluted in DMSO and a volume of 0.1 μL was transferred to the wells of a black low volume 384-well plate. 5 μL/well volume of bodipy-loaded KRAS G12C diluted to 5 nM in assay buffer (25 mM Hepes pH 7.5, 50 mM NaCl, 10 mM MgCl2 and 0.01% Brij-35) was added to the plate and pre-incubated with inhibitor for 2 hours at ambient temperature. Appropriate controls (enzyme with no inhibitor or with a G12C inhibitor (AMG-510)) were included on the plate. The exchange was initiated by the addition of a 5 μL/well volume containing 1 mM GppNHp and 300 nM SOS1 in assay buffer. The 10 μL/well reaction concentration of the bodipy-loaded KRAS G12C, GppNHp, and SOS1 were 2.5 nM, 500 uM, and 150 nM, respectively. The reaction plates were incubated at ambient temperature for 2 hours, a time estimated for complete GDP-GTP exchange in the absence of inhibitor. For the KRAS G12D and G12V mutants, similar guanine nucleotide exchange assays were used with 2.5 nM as final concentration for the bodipy loaded KRAS proteins and with 4 hours and 3 hours incubation after adding GppNHp-SOS1 mixture for G12D and G12V respectively. A cyclic peptide described to selectively bind G12D mutant (Sakamoto et al., BBRC 484.3 (2017), 605-611) or internal compounds with confirmed binding were used as positive controls in the assay plates. Fluorescence intensities were measured on a PheraStar plate reader instrument (BMG Labtech) with excitation at 485 nm and emission at 520 nm.
Either GraphPad prism or Genedata Screener SmartFit was used to analyze the data. The IC50 values were derived by fitting the data to a four parameter logistic equation producing a sigmoidal dose-response curve with a variable Hill coefficient.

The next data set relates to KRAS_G12C pERK. The experiment in a line: Cellular pERK HTRF assay (KRAS_G12C pERK assay). The conditions noted are these: KRAS G12C cells, 4 hours incubation with compound, read-out: G12C_pERK. The format is cell-based, human. Here is the method: MIA PaCa-2 (KRAS G12C; ATCC® CRL-1420), NCI-H358 (KRAS G12C; ATCC® CRL-5807), A427 (KRAS G12D; ATCC® HTB53), HPAFII (KRAS G12D; ATCC® CRL-1997), YAPC (KRAS G12V; DSMZ ACC382), SW480 (KRAS G12V; ATCC® CRL-228) and NCI-H838 (KRAS WT; ATCC® CRL-5844) cells are purchased from ATCC and maintained in RPMI 1640 media supplemented with 10% FBS (Gibco/Life Technologies). The cells are plated at 5000 cells per well (8 uL) into Greiner 384-well low volume, flat-bottom, and tissue culture treated white plates and incubated overnight at […], 5% CO2. The next morning, test compound stock solutions are diluted in media at 3× the final concentration and 4 uL are added to the cells, with a final concentration of 0.1% of DMSO. The cells are incubated with the test compounds for 4 hours (G12C and G12V) or 2 hrs (G12D) at 37° C., 5% CO2. Four uL of 4× lysis buffer with blocking reagent (Cisbio) are added to each well and plates are rotated gently (300 rpm) for 30 minutes at room temperature. Four uL per well of Cisbio anti Phospho-ERK 1/2 d2 is mixed with anti Phospho-ERK 1/2 Cryptate (1:1), and added to each well, incubated overnight in the dark at room temperature. Plates are read on the Pherastar plate reader at 665 nm and 620 nm wavelengths. Data are analyzed in Genedata Screener using SmartFit for IC50 values.
On the technique in general: TR-FRET usually uses a lanthanide donor and a delayed reading to cut background.

Data set [1] relates to KRAS_G12C pERK in MIA PaCa-2 cells. The experiment in a line: Whole Blood pERK1/2 HTRF assay (KRAS_G12C WB pERK assay). It is filed as cell-based, human. Conditions: Homo sapiens, compound in whole blood, 4 hours, read-out: G12C_WB_pERK. Here is the method: MIA PaCa-2 cells (KRAS G12C; ATCC® CRL-1420), HPAF-II (KRAS G12D; ATCC® CRL-1997) and YAPC (KRAS G12V; DSMZ ACC382) are maintained in RPMI 1640 with 10% FBS (Gibco/Life Technologies). For MIA PaCa-2 assay, cells are seeded into 96 well tissue culture plates (Corning #3596) at 25000 cells per well in 100 uL media and cultured for 2 days at 37° C., 5% CO2 before the assay. For HPAF-II and YAPC assay, cells are seeded in 96 well tissue culture plates at 50000 cells per well in 100 uL media and cultured for 1 day before the assay. Whole Blood are added to the 1 uL dots of compounds (prepared in DMSO) in 96 well plates and mixed gently by pipetting up and down so that the concentration of the compound in blood is 1× of desired concentration, in 0.5% DMSO. The media is aspirated from the cells and 50 uL per well of whole blood with test compound is added and incubated for 4 hours for MIA PaCa and YAPC assay; or 2 hours for HPAF-II assay, respectively at 37° C., 5% CO2. After dumping the blood, the plates are gently washed twice by adding PBS to the side of the wells and dumping the PBS from the plate onto a paper towel, tapping the plate to drain well. Fifty ul/well of 1× lysis buffer #1 (Cisbio) with blocking reagent (Cisbio) and Benzonase nuclease (Sigma Cat #E1014-5KU, 1:10000 final concentration) is then added and incubated at room temperature for 30 minutes with shaking (250 rpm). Following lysis, 16 uL of lysate is transferred into 384-well Greiner small volume white plate using an Assist Plus (Integra Biosciences, NH). Four uL of 1:1 mixture of anti Phospho-ERK 1/2 d2 and anti Phospho-ERK 1/2 Cryptate (Cisbio) is added to the wells using the Assist Plus and incubated at room temperature overnight in the dark. Plates are read on the Pherastar plate reader at 665 nm and 620 nm wavelengths. Data are analyzed in Genedata Screener using SmartFit for IC50 values.

Data set [2] is described as follows: Human whole blood stability. It is filed as in vitro ADME. The conditions noted are these: percent remaining at 4 hr, 1 μM, 37° C. Here is the method:
The whole blood stability of the exemplified compounds was determined by LC-MS/MS. The 96-Well Flexi-Tier™ Block (Analytical Sales & Services, Inc, Flanders, NJ) is used for the incubation plate containing 1.0 mL glass vials with 0.5 mL of blood per vial (pooled gender, human whole blood sourced from BIOIVT, Hicksville, NY or similar). Blood is pre-warmed in water bath to 37° C. for 30 minutes. 96-deep well analysis plate is prepared with the addition of 100 μL ultrapure water/well. 50 μL chilled ultrapure water/well is added to 96-deep well sample collection plate and covered with a sealing mat. 1 μL of 0.5 mM compound working solution (DMSO:water) is added to the blood in incubation plate to reach final concentrations of 1 μM, mixed by pipetting thoroughly and 50 μL is transferred 50 into the T=0 wells of the sample collection plate. Blood is allowed to sit in the water for 2 minutes and then 400 μL stop solution/well is added (acetonitrile containing an internal standard). The incubation plate is placed in the Incu-Shaker CO2 Mini incubator (Benchmark Scientific, Sayreville, NJ) at 37° C. with shaking at 150 rpm. At 1, 2 and 4-hr, the blood samples are mixed thoroughly by pipetting and 50 μL is transferred into the corresponding wells of the sample collection plate. Blood is allowed to sit in the water for 2 minutes and then 400 μL of stop solution/well is added. The collection plate is sealed and vortexed at 1700 rpm for 3 minutes (VX-2500 Multi-Tube Vortexer, VWR International, Radnor, PA), and samples are then centrifuged in the collection plate at 3500 rpm for 10 minutes (Allegra X-14R Centrifuge Beckman Coulter, Indianapolis, IN). 100 μL of supernatant/well is transferred from the sample collection plate into the corresponding wells of the analysis plate. The final plate is vortexed at 1700 rpm for 1 minute and analyze samples by LC-MS/MS. The peak area ratio of the 1, 2, and 4 hr samples relative to T=0 is used to determine the percent remaining. The natural log of the percent remaining versus time is used determine a slope to calculate the compounds half-life in blood (t1/2=0.693/slope).

Where two headings read alike, the source gives them in different places.

Chain of KRAS G12C (P01116 1-188 isoform P01116-2 G12C): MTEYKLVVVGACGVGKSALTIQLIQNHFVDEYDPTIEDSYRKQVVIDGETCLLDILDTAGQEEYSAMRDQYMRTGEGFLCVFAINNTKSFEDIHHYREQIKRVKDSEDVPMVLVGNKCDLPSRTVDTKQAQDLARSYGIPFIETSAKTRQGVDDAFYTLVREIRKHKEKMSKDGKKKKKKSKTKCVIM

For the compound `CN(C)C1(C)CN(c2nc3c(F)c(-c4ccc(F)c5cccnc45)c(C(F)(F)F)cc3c3c2nnn3[C@H]2CCN(C(=O)/C=C/CF)[C@H](CC#N)C2)C1` (single isomer, unassigned) [Example 1a], the IC50 on KRAS G12C was at most 50 nM; with KRAS_G12C pERK (Homo sapiens, 4 h), at most 50 nM; in data set [1] it was at most 50 nM. Also, the “Human whole blood stability at 4 hr” value in data set [2] is on record as “††† (WBS >90%)”.

Consider `COc1c(C)cccc1-c1c(C(F)(F)F)cc2c(nc(N3CC(C)(N(C)C)C3)c3nnn([C@H]4CCN(C(=O)/C=C/CF)[C@H](CC#N)C4)c32)c1F` (single isomer, unassigned) [Example 2a], for which the IC50 at KRAS G12C is at most 50 nM; in the data set on KRAS_G12C pERK (Homo sapiens, 4 h), at most 50 nM; in data set [1] it was at most 50 nM. In addition, in data set [2], the “Human whole blood stability at 4 hr” value is on record as “†† (WBS >70% but ≤90%)”.

`COc1c(Cl)cccc1-c1c(C(F)(F)F)cc2c(nc(N3CC(C)(N(C)C)C3)c3nnn([C@H]4CCN(C(=O)/C=C/CF)[C@H](CC#N)C4)c32)c1F` (single isomer, unassigned) [Example 3a]: the IC50 on KRAS G12C is at most 50 nM; in the data set on KRAS_G12C pERK (Homo sapiens, 4 h), at most 50 nM; in data set [1], 100 to 1000 nM. Besides, the “Human whole blood stability at 4 hr” value in data set [2] was “†† (WBS >70% but ≤90%)”.

For `C[C@H](Oc1nc2c(F)c(-c3ccc(F)c4cccnc34)c(C(F)(F)F)cc2c2c1nnn2[C@H]1CCN(C(=O)/C=C/CF)[C@H](CC#N)C1)[C@@H]1CCCN1C` (single isomer, unassigned) [Example 4a], the IC50 is at most 50 nM at KRAS G12C; at most 50 nM with KRAS_G12C pERK (Homo sapiens, 4 h); at most 50 nM in data set [1]. Further, the “Human whole blood stability at 4 hr” value in data set [2] is on record as “††† (WBS >90%)”.

In the case of `C=CC(=O)N1CCC(n2nnc3c(O[C@@H](C)[C@@H]4CCCN4C)nc4c(F)c(-c5ccc(F)c6cccnc56)c(C(F)(F)F)cc4c32)CC1` (single isomer, unassigned) [Example 5a], the IC50 on KRAS G12C was at most 50 nM; in the data set on KRAS_G12C pERK (Homo sapiens, 4 h), at most 50 nM; in data set [1] it was 50 to 100 nM. For the same compound, the “Human whole blood stability at 4 hr” value in data set [2] was “†† (WBS >70% but ≤90%)”.

Turning to `C=CC(=O)N1CCC(n2nnc3c(O[C@@H](C)[C@@H]4CCCN4C)nc4c(F)c(-c5cccc6cccc(C#N)c56)c(C)cc4c32)CC1` (single isomer, unassigned) [Example 11b], the IC50 (at KRAS G12C; in the data set on KRAS_G12C pERK; in data set [1]) was at most 50 nM in each case. In addition, the “Human whole blood stability at 4 hr” value in data set [2] is listed as “†† (WBS >70% but ≤90%)”.

For the compound `C=CC(=O)N1CC[C@H](n2nnc3c(O[C@@H](C)[C@@H]4CCCN4C)nc4c(F)c(-c5cccc6cccc(C#N)c56)c(C)cc4c32)C[C@H]1C` (single isomer, unassigned) [Example 14b], the IC50 on KRAS G12C was at most 50 nM; in the data set with KRAS_G12C pERK (Homo sapiens, 4 h) it was at most 50 nM; in data set [1] it was at most 50 nM. The “Human whole blood stability at 4 hr” value in data set [2] is listed as “††† (WBS >90%)”.

Regarding `C=C(F)C(=O)N1CC[C@H](n2nnc3c(N4CC(N(C)CC)C4)nc4c(F)c(-c5c(C)c(C)cc6[nH]ncc56)c(C)cc4c32)C[C@H]1CC#N` (single isomer, unassigned) [Example 15a], the IC50 on KRAS G12C is at most 50 nM; in the data set with KRAS_G12C pERK (Homo sapiens, 4 h), at most 50 nM; in data set [1] it was 50 to 100 nM. For the same compound, the “Human whole blood stability at 4 hr” value in data set [2] is given as “††† (WBS >90%)”.

On to `Cc1cc2c(nc(O[C@@H](C)[C@@H]3CCCN3C)c3nnn(C4CCN(C(=O)/C=C/CF)CC4)c32)c(F)c1-c1cccc2cccc(C#N)c12` (single isomer, unassigned) [Example 16b], for which the IC50 at KRAS G12C is at most 50 nM; with KRAS_G12C pERK, at most 50 nM; in data set [1], 50 to 100 nM. Also, the “Human whole blood stability at 4 hr” value in data set [2] was “††† (WBS >90%)”.

`COC/C=C/C(=O)N1CC[C@H](n2nnc3c(N4CC(C)(N(C)C)C4)nc4c(Cl)c(-c5ccc(F)c6cccnc56)c(Cl)cc4c32)C[C@H]1CC#N` (single isomer, unassigned) [Example 18a]: the IC50 at KRAS G12C is at most 50 nM; in the data set on KRAS_G12C pERK (Homo sapiens, 4 h), at most 50 nM; in data set [1] it was 100 to 1000 nM. Moreover, the “Human whole blood stability at 4 hr” value in data set [2] is “††† (WBS >90%)”.

As to `COC/C=C/C(=O)N1CC[C@H](n2nnc3c(O[C@@H](C)[C@@H]4CCCN4C)nc4c(F)c(-c5c(F)cccc5OC)c(C)cc4c32)C[C@H]1CC#N` (single isomer, unassigned) [Example 34b], the IC50 (on KRAS G12C; in data set [1]) was at most 50 nM each time. Besides, the “Human whole blood stability at 4 hr” value in data set [2] was “††† (WBS >90%)”.
